In US11571459B2, “Methods for treating cancer using PS-targeting antibodies with immuno-oncology agents” (ONCXERNA THERAPEUTICS, INC., priority 2017, dated 2023):

How the values were obtained:
[1] = system: advanced hepatocellular carcinoma (HCC); experiment: Phase II bavituximab and sorafenib in HCC; type: in vivo, human
Method: A Phase II, single institution study of bavituximab and sorafenib in advanced hepatocellular carcinoma (HCC) was conducted. […] Secondary endpoints included overall survival (OS), disease specific survival, 4 month progression free survival, safety and response rate. The study accrued 38 patients.

[2] = system: PS; conditions: in the presence of serum; cited from earlier work
[3] = molecular target: T1, β2GPI (Homo sapiens, UniProt P02749); experiment: Serum β2GPI levels after bavituximab, Phase Ib HCV study; type: in vivo; parameters: from tissue; host or cells: serum of human patients
T1 sequence (P02749 20-345): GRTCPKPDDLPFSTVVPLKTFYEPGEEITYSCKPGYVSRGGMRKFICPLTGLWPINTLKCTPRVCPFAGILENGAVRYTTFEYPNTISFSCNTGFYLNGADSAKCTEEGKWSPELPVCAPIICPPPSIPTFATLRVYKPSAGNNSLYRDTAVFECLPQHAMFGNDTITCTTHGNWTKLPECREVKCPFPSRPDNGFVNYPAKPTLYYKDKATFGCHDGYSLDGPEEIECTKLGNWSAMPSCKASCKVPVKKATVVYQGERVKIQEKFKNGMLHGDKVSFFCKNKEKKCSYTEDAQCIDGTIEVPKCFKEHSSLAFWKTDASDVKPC
Method: At the 6 mg/kg dose, β2GPI levels fell by 40% relative to the pretreatment levels, to approximately the lower limit of the normal range.

[4] = Administration to monkeys (safety); type: in vivo
[5] = system: previously untreated stage IV pancreatic cancer; experiment: Phase II (PPHM 1002) gemcitabine with or without bavituximab; type: in vivo, human; conditions: with gemcitabine
Method: The primary objective was to compare the OS of patients among the treatment arms. Secondary objectives included comparing PFS, ORR, DR and safety.
Gemcitabine (1000 mg/m^2) was given on days 1, 8, and 15 of each 28-day cycle (4 weeks) until disease progression or unacceptable toxicities. A total of 70 patients were enrolled to the study. In general, the patient population had very extensive disease burden, which may have reduced the response in both arms.
The levels of pre-treatment functional β2GPI ranged from 82.5 to 343.2 μg/ml for all patients. For these 31 patients, the mean level of pre-treatment functional β2GPI (219.2 μg/ml) was consistent with the average reported in the literature.

[6] = system: previously untreated locally advanced or metastatic non-squamous NSCLC; experiment: Phase II (PPHM 1001) paclitaxel/carboplatin with or without bavituximab; type: in vivo, human; conditions: bavituximab given with paclitaxel/carboplatin
[7] = system: hepatitis C virus (HCV); experiment: Phase Ib escalating repeat-dose study in chronic HCV; type: in vivo, human; conditions: for viral load: Phase Ib
Method: (§1) Bavituximab was first evaluated in Phase I, open-label, dose escalation studies and Phase Ib, open-label, escalating repeat-dose studies in patients chronically infected with hepatitis C virus (HCV). […] Doses of 0.1, 0.3, 1, 3 and 6 mg/kg were administered in Phase I (30 patients; successive cohorts of 6 patients), and doses of 0.3, 1, 3 and 6 mg/kg were administered in Phase Ib (24 patients; four cohorts of 6 patients).

[8] = system: locally advanced or metastatic breast cancer; experiment: Phase II bavituximab plus docetaxel in breast cancer; type: in vivo, human; conditions: with docetaxel
Source text: This trial was also a Phase II, multicenter trial utilizing a Simon 2-stage design. […] The primary objective was to determine the ORR (CR+PR). Secondary objectives included time to tumor progression, DOR, OS and safety.
All patients received one prior chemotherapy regimen.

[9] = Administration to rats (safety); type: in vivo; conditions: doses above 10 mg/kg
[10] = system: PS; experiment: ELISA binding to PS-coated plates
Method: The 3G4 antibody was produced by immunizing mice with autologous, PS-positive endothelial cells, as reported in Ran et al., 2005. The 3G4 antibody was tested for binding to PS in a standard ELISA in the presence and absence of serum, and was initially characterized as being “serum-independent”, i.e., an antibody that binds to PS in the absence of serum.
In a follow-on study, the binding of the 2aG4 antibody to PS was tested in an ELISA in the presence of varying concentrations of human β2GPI.
These included binding to PS in ELISAs, FACS analyses using PS-positive cells and functional assays in the form of an NFAT surrogate ADCC bioassay (Larson et al., 2013).

[11] = Further pharmacokinetic studies in over 120 patients with cancer or viral infections; type: in vivo, human
[12] = irrespective of the presence of serum; cited from earlier work
[13] = system: hepatitis C virus (HCV); experiment: Phase I single intravenous infusion dose escalation study in chronic HCV; type: in vivo, human; conditions: for Observed Cmax: HCV patients
Method: A Phase I, open-label, single center, dose escalation study evaluated a single intravenous infusion of bavituximab in patients chronically infected with HCV (Example III, A).
as §1

[14] = system: previously-treated Stage IIIb/IV non-squamous NSCLC; experiment: Phase III trial of bavituximab plus docetaxel in NSCLC; conditions: functional β2GPI ≥200 μg/mL
Source text: This global, double-blind Phase III trial was initiated in 2012. Selection criteria were for patients with Stage IIIb/IV non-squamous NSCLC who progressed on platinum-doublet chemotherapy (should have progressed on appropriate targeted therapy if known EGFR or ALK mutation), with ECOG PS 0-1 and prior immunotherapy allowed (ECOG is the performance status scale defined by the Eastern Cooperative Oncology Group). […] The primary endpoint was overall survival (OS) and secondary endpoints included objective response rate (Independent Central Review, ICR), progression-free survival (ICR), safety, PK, Quality of Life (LCSS) and exploratory biomarkers, including immune correlates.
OS was analyzed by VeriStrat subgroups using Kaplan-Meier statistical methods.
A single cutoff method was first used to assess the patient β2GPI data.
The initial analyses described above prompted further, extensive analyses of the data in 592 evaluable patients. These analyses used a two cutoff method (Klein & Moeschberger, 2003).
Archival tissue obtained at the time of diagnosis was requested, but not required, in the Phase III trial of Example X. Formalin-fixed paraffin-embedded (FFPE) slides were stained with antibodies for a panel of lymphoid (or tumor) cell markers, as described in Feng et al., 2015: CD3+, CD8+, FoxP3+, PD-L1+, CD163+ and CK+ (cytokeratin, an epithelial carcinoma marker) using a mutliplex (6-plex) quantitative immunohistochemistry (IHC) assay (OPAL®, PerkinElmer, Waltham, Mass., USA) and using DAPI. The PD-L1 antibody used was the rabbit anti-PD-L1 antibody termed E1L3N® XP® (Cell Signaling Technology, (CST), Danvers, Mass., Catalogue #13684; Mahoney et al., 2015). Baseline PD-L1 expression was retrospectively scored on tumor cells (TC, i.e., CK+) and PD-L1 expressing tumor cells were classified according to their percentage within the total number of tumor cells using established assays and classifications (Fehrenbacher et al., 2016), as follows: TC3≥50%; TC2≥5% and ≤50%; TC1≥1% and <5%; and TC0<1%. Cox regression models for PD-L1 IHC subgroup populations were used for correlation with OS.
Kaplan-Meier statistical methods and Cox proportional hazard models were utilized to evaluate and contrast the correlation of peripheral (and intratumoral) IFNγ levels with OS based on a data cut from the Phase III trial (Example X) dated Feb.

[15] = functional β2GPI less than 200 μg/mL

bavituximab
patients with increased infiltration of activated tumor-fighting T-cells (CD8) into the tumor microenvironment ([1]; after one cycle): Three of the six patients
anorexia, all grade ([1]; with sorafenib): 24%
diarrhea, all grade ([1]; with sorafenib): 32%
fatigue, all grade ([1]; with sorafenib): 26%
four month PFS ([1]; with sorafenib): 61%
median OS (mOS) ([1]; with sorafenib): 6.2 months
partial response ([1]; with sorafenib): Two patients achieved partial response
tolerability ([1]; with sorafenib): well tolerated
grade 4 or 5 adverse events ([1]; with sorafenib, 38 patients): no grade 4 or 5 adverse events recorded
binding to anionic phospholipids (PS, PI, PA, PG, CL) [2]: bind strongly to anionic phospholipids
change of β2GPI levels ([3]; 1 mg/kg): virtually unchanged
time for β2GPI to return to pre-treatment level ([3]; 3 mg/kg): ≤ 24 h
time for β2GPI to recover to baseline ([3]; 6 mg/kg): 3 days
effect on β2GPI in the systemic circulation ([4]; 100 mg/kg): transiently decreased β2GPI in the systemic circulation
doses safely administered ([4]; doses above 10 mg/kg): up to 100 mg/kg
mOS [5, 15]: 5.3 months
mOS ([5]; functional β2GPI ≥200 μg/mL): 7.4 months
mOS [6, 15]: 14.2 months
mOS ([6]; functional β2GPI ≥200 μg/mL): 17.0 months
viral load ([7]; 3 mg/kg, throughout treatment and follow-up): consistent decreases in HCV
viral load ([7]; doses of 0.3, 1 and 6 mg/kg): small decreases in viral load
accumulation / time-dependent PK differences ([7]; all dose levels, day 0 and day 10): no evidence of accumulation of bavituximab or time-dependent PK differences
median DOR [8]: 6.1 months
median PFS [8]: 7.4 months
most common TEAEs of Grade ≥3 [8]: only fatigue, headache, back pain and hypertension were Grade ≥3
CR ([8]; 46 patients): 10.9%
PR ([8]; 46 patients): 50.0%
objective response ([8]; 46 patients): 60.9%
median OS ([8]; final analysis): approximately 20.7 months
doses safely administered [9]: up to 100 mg/kg
binding to PS in ELISA in the absence of serum ([10]; antibody expressed in CHO cells under serum-free conditions): binding to PS was lost
binding to phospholipids in standard ELISA ([10]; phospholipid-coated ELISA plates): bound at least as well as the murine 3G4
PK linearity ([11]; doses 0.1 to 6 mg/kg): linear single-dose and multiple-dose PK characteristics
time by which distribution phase is essentially complete ([11]; where observed): ≤ 6 h
binding to neutral phospholipids PC, SM or PE [12]: no detectable binding
Observed Cmax ([13]; 0.1 mg/kg single infusion): 2500 ng/mL
Observed Cmax ([13]; 0.3 mg/kg single infusion): 5700 ng/mL
Observed Cmax ([13]; 1 mg/kg single infusion): 24300 ng/mL
Observed Cmax ([13]; 3 mg/kg single infusion): 75800 ng/mL
Observed Cmax ([13]; 6 mg/kg single infusion): 135000 ng/mL
tolerability ([13]; Phase I and Phase Ib, 0.1 to 6 mg/kg): all dose levels of bavituximab were well tolerated
viral load ([13]; Phase I, all dose levels): transient reductions in viral load
mOS ([14]; with subsequent IO): has yet to be reached
mOS ([14]; without subsequent IO): 10.5 months
